Assay [1] addresses T1, Ferrochelatase, mitochondrial (Homo sapiens, UniProt P22830).
T1 sequence (P22830 whole entry): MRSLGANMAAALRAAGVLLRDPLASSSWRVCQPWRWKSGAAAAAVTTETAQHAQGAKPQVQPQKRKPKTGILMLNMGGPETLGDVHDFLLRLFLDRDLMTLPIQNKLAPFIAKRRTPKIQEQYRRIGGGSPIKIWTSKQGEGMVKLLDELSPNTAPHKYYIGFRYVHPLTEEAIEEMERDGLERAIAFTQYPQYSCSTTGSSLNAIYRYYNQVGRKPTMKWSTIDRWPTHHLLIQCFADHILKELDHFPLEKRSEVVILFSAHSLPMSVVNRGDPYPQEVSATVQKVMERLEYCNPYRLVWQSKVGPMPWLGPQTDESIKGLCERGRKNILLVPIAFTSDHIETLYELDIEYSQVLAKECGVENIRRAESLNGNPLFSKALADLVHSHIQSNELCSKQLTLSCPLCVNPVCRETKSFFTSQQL

Assay [2] deals with Actin-related protein 2 (Homo sapiens, UniProt P61160).
Assay [3] has as its target Tyrosine-protein kinase JAK1 (Homo sapiens, UniProt P23458).
Assay [4] deals with Serine/threonine-protein kinase MRCK beta (Homo sapiens, UniProt Q9Y5S2).
Assay [5] has as its target AP2-associated protein kinase 1 (Homo sapiens, UniProt Q2M2I8).
For assay [6], the target named is 26S proteasome regulatory subunit 6B (Homo sapiens, UniProt P43686).
Assay [7] has as its target Ribosomal protein S6 kinase alpha-1 (Homo sapiens, UniProt Q15418).
The target in assay [8] is Guanine nucleotide-binding protein G(i) subunit alpha-2 (Homo sapiens, UniProt P04899).
Assay [9] deals with LIM domain kinase 2 (Homo sapiens, UniProt P53671).
In assay [10] the target is G protein-coupled receptor kinase 6 (Homo sapiens, UniProt P43250).
Assay [11] addresses Serine/threonine-protein kinase N1 (Homo sapiens, UniProt Q16512).
The target of assay [12] is GTP-binding nuclear protein Ran (Homo sapiens, UniProt P62826).
In assay [13] the target is Mitogen-activated protein kinase 8 (Homo sapiens, UniProt P45983).
Assay [14] has as its target Aurora kinase B (Homo sapiens, UniProt Q96GD4).
In assay [15] the target is Calcium/calmodulin-dependent protein kinase type II subunit delta (Homo sapiens, UniProt Q13557).
For assay [16], the target named is T2, Serine/threonine-protein kinase PLK4 (Homo sapiens, UniProt O00444).
T2 sequence (O00444 whole entry): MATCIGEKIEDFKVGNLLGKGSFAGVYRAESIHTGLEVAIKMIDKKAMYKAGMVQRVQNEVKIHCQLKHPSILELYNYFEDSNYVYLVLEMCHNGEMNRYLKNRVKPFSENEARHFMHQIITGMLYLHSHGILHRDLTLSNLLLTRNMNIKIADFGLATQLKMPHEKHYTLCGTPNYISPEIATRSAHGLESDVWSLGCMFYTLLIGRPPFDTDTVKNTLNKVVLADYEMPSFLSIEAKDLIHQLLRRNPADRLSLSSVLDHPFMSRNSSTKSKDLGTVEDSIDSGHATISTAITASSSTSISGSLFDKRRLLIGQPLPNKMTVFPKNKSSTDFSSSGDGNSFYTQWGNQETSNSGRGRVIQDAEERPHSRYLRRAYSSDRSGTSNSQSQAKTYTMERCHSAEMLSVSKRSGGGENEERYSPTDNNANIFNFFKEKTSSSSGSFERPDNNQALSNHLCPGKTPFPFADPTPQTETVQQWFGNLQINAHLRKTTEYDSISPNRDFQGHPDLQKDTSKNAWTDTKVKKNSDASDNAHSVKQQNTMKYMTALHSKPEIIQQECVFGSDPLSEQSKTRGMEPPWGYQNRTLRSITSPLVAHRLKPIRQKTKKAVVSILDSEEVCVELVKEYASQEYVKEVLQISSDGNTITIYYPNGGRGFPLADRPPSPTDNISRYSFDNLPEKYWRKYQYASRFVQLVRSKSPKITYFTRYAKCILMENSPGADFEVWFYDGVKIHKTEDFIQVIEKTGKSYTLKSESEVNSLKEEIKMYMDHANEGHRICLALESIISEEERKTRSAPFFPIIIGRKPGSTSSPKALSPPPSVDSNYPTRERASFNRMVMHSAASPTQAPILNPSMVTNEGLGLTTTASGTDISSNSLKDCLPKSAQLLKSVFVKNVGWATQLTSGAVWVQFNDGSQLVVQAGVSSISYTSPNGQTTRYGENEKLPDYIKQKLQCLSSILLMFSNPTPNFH

The target in assay [17] is Tyrosine-protein kinase ABL1 (Homo sapiens, UniProt P00519).
The target of assay [18] is Maternal embryonic leucine zipper kinase (Homo sapiens, UniProt Q14680).

These results are taken from ChEMBL document CHEMBL3991601, “The target landscape of clinical kinase drugs” (Science, 2017).

Structures are written as SMILES. Active and inactive are the calls of the source. Rule as the data show it, for most assays here: actives have a measured Kd and inactives only a lower limit.

What is called Kd is the equilibrium constant for the complex coming apart.
Also: in the data inactive means no Kd found up to 30 µM.

Mitogen-activated protein kinase 8, sequence (P45983 whole entry): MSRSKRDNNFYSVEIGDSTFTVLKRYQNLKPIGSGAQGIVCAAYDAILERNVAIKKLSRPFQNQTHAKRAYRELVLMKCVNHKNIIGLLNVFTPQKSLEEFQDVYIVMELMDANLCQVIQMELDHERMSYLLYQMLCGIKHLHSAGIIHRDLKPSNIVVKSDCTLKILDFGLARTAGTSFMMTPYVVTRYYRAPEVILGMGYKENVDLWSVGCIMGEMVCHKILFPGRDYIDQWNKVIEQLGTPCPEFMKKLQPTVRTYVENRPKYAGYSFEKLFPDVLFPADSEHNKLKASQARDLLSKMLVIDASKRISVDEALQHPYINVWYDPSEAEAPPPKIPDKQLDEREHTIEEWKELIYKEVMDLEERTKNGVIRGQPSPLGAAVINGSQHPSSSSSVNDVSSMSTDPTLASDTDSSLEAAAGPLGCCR
Calcium/calmodulin-dependent protein kinase type II subunit delta, sequence (Q13557 whole entry): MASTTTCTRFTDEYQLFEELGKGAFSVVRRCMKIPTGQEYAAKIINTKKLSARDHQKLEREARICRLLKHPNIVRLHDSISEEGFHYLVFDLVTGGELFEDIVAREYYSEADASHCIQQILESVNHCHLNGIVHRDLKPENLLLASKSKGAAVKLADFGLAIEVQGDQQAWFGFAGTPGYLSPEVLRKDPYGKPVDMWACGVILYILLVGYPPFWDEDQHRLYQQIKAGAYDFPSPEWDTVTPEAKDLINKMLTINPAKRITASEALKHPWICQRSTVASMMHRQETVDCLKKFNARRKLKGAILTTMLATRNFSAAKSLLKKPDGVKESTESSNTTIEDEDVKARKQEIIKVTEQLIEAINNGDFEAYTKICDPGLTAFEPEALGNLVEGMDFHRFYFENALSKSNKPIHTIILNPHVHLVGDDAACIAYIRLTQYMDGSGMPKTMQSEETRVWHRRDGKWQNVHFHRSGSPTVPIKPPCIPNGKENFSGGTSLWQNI
G protein-coupled receptor kinase 6, sequence (P43250 whole entry): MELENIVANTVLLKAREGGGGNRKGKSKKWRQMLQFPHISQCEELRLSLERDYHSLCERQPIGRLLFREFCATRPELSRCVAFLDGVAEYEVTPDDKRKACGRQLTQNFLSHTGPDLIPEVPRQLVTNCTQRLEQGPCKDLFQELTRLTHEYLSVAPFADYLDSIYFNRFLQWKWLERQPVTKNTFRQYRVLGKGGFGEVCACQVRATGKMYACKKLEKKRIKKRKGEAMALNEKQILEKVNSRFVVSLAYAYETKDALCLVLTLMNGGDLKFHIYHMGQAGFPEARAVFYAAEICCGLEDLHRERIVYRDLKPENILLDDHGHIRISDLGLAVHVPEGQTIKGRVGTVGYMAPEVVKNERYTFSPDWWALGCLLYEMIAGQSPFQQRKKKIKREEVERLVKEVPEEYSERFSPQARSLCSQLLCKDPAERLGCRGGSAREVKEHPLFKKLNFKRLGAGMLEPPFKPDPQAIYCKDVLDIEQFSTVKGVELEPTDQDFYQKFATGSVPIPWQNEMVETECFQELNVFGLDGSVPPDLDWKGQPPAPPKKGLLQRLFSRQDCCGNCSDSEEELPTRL
Tyrosine-protein kinase ABL1, sequence (P00519 whole entry): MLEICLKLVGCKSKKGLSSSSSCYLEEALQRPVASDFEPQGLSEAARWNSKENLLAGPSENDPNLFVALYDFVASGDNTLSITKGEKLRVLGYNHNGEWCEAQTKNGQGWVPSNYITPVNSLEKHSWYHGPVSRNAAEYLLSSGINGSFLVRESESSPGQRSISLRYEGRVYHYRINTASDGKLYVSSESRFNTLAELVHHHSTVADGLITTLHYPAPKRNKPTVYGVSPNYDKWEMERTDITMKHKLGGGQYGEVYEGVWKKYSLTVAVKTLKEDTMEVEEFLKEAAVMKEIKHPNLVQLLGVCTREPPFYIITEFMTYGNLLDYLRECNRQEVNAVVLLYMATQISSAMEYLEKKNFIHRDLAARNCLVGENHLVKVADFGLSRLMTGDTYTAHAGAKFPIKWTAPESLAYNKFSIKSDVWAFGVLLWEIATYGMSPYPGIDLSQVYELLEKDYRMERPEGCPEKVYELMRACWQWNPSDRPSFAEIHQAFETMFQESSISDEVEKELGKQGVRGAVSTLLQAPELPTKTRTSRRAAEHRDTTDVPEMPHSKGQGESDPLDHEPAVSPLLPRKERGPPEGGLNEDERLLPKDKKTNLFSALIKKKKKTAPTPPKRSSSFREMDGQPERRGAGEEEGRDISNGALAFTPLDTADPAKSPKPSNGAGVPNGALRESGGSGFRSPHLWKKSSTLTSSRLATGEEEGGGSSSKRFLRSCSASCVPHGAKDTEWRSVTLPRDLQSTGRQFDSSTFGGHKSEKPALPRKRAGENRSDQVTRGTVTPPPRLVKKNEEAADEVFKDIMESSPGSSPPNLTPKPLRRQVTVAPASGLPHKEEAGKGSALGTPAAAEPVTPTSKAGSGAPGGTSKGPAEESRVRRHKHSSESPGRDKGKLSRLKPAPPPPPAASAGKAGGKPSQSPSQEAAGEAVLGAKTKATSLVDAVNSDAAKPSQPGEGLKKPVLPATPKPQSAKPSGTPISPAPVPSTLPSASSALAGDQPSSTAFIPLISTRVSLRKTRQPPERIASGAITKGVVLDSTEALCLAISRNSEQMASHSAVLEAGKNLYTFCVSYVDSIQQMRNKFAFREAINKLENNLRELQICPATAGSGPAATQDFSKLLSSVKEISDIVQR
AP2-associated protein kinase 1, sequence (Q2M2I8 whole entry): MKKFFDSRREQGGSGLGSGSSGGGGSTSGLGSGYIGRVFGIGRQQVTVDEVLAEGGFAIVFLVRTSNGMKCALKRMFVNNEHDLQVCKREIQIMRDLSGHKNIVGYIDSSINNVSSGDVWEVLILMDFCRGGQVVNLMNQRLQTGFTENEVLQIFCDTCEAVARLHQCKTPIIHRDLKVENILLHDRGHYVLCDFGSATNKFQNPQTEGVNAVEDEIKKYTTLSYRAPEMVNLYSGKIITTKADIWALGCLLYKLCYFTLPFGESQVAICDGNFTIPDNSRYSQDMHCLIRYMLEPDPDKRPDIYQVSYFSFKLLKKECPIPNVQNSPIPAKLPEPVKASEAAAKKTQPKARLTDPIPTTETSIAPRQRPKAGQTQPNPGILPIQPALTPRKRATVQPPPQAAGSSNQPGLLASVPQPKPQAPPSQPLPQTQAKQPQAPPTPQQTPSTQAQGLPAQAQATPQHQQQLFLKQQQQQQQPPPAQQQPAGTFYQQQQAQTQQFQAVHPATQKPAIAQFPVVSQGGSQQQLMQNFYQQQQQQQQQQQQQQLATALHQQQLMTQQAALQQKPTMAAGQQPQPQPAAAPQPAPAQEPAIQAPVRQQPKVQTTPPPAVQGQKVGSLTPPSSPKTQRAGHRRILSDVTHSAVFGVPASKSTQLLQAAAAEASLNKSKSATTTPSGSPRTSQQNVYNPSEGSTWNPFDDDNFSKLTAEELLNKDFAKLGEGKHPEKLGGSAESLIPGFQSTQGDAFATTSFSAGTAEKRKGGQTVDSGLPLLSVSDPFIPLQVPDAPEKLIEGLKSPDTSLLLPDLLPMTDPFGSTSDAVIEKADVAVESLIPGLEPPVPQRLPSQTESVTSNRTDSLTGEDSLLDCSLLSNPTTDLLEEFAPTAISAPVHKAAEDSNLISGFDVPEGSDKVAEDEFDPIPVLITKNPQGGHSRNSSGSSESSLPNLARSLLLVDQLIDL
LIM domain kinase 2, sequence (P53671 whole entry, the tested form may be a part): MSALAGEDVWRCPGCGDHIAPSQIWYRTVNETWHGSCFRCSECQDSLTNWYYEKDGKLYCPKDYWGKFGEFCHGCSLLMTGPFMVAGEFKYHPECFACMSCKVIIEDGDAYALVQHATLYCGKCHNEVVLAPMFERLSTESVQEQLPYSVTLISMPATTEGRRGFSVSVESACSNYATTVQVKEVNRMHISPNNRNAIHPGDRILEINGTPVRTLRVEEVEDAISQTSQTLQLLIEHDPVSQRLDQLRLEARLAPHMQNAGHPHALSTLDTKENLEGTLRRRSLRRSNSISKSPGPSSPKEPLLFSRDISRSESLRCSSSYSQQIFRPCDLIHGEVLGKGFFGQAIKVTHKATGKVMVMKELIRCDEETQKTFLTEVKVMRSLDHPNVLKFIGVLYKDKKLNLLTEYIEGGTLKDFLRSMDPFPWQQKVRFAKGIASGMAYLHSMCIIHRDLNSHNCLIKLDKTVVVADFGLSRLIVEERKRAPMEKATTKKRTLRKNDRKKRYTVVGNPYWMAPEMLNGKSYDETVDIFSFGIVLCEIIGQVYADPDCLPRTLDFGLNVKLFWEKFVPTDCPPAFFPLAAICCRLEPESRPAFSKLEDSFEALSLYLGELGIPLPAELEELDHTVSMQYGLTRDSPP
Guanine nucleotide-binding protein G(i) subunit alpha-2, sequence (P04899 whole entry, the tested form may be a part): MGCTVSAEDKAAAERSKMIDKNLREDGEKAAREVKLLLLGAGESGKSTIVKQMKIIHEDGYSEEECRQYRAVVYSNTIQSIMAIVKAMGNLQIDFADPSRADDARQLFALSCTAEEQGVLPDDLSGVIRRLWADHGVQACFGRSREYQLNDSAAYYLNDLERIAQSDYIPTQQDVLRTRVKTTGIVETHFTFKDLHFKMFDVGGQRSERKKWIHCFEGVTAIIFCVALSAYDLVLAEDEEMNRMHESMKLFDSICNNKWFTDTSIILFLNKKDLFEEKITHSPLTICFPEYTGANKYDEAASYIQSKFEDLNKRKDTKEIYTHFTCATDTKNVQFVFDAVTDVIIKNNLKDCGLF
26S proteasome regulatory subunit 6B, sequence (P43686 whole entry): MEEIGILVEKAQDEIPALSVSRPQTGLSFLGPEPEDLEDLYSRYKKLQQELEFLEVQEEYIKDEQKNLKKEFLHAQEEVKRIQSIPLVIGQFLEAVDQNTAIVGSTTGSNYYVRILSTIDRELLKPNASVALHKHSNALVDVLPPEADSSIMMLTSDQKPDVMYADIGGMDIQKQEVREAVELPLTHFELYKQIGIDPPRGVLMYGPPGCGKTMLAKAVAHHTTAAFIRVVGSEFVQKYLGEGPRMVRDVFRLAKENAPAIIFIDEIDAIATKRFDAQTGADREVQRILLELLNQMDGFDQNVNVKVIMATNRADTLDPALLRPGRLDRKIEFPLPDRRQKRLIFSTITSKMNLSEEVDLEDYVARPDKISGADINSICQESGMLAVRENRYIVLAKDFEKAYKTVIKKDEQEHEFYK

Consider `COc1cc(Nc2ncc3c(n2)-c2ccc(Cl)cc2C(c2c(F)cccc2OC)=NC3)ccc1C(=O)O` [ALISERTIB], for which the Kd in assay [1], in [2], in assay [3], in [4], in assay [5] and in assay [6] was > 30 µM (inactive) in each case. Besides, the Kd in assay [7] was > 30 µM (inactive); in assay [8], 0.184 µM; in assay [9], > 30 µM (inactive); in assay [10], > 30 µM (inactive); in assay [11], > 30 µM (inactive); in assay [12], > 30 µM (inactive).

For the compound `O=C(Nc1c[nH]nc1-c1nc2cc(CN3CCOCC3)ccc2[nH]1)NC1CC1` [AT-9283], the Kd in assay [1] is > 30 µM (inactive); in [2], > 30 µM (inactive); in assay [3] it was 0.368 µM (active); in [13], 0.157 µM (active); in assay [14], 0.017 µM (active); in [4], > 30 µM (inactive). For the same compound, the Kd in assay [15] was > 30 µM (inactive); in assay [5], 0.017 µM (active); in assay [6], > 30 µM (inactive); in [16], 0.021 µM (active); in [8], > 30 µM (inactive); in [9] it was 4.43 µM (active). Besides, the figures for the dissociation constant Kd in assay [10] and in assay [12] were 13.6 µM and > 30 µM (inactive), respectively.

With `CNC(=O)c1ccccc1Sc1ccc2c(/C=C/c3ccccn3)n[nH]c2c1` [AXITINIB], the equilibrium dissociation constant (Kd) in assay [1] was 6.84 µM (active); in assay [2], > 30 µM (inactive); in assay [6] it was > 30 µM (inactive); in [8] it was > 30 µM (inactive); in assay [10], > 30 µM (inactive); in [12] it was > 30 µM (inactive).

For `C[C@@H](Oc1cc(-n2cnc3ccc(CN4CCN(C)CC4)cc32)sc1C(N)=O)c1ccccc1C(F)(F)F` [GSK-461364], the Kd in assay [1], in [2], in assay [6], in [8], in [10] and in [12] was > 30 µM (inactive) in each case.

Consider `CNC(=O)c1nn(C)c2c1C(C)(C)Cc1cnc(Nc3ccc(N4CCN(C)CC4)cc3)nc1-2` [MILCICLIB], for which the Kd is > 30 µM (inactive) in assay [1]; > 30 µM (inactive) in assay [3]; > 30 µM (inactive) in assay [13]; 7.54 µM in [14]; > 30 µM (inactive) in assay [4]; > 30 µM (inactive) in [15]. The dissociation constant (Kd) in assay [5] is 7.41 µM (active); in assay [6], > 30 µM (inactive); in [7], > 30 µM (inactive); in assay [16], > 30 µM (inactive); in [8] it was > 30 µM (inactive); in [9] it was > 30 µM (inactive). For the same compound, the Kd in assay [10], in assay [11] and in assay [12] was > 30 µM (inactive) each time.

Regarding `NC(=O)c1c(OCc2c(F)cc(Br)cc2F)nsc1NC(=O)NCCCCN1CCCC1` [OSI-632], the Kd in assay [1], in assay [2], in assay [3], in [4], in [5] and in assay [6] was > 30 µM (inactive) throughout. The Kd in [8], in assay [9], in assay [10] and in [12] was > 30 µM (inactive) each time.

Consider `O=C(NOCCO)c1cc(CN2OCCCC2=O)c(F)c(F)c1Nc1ccc(I)cc1F` [RO-4987655], for which the Kd in assay [1], in assay [2], in assay [6], in [8], in assay [10] and in assay [12] was > 30 µM (inactive) in each case.

For `Cc1cc(Nc2ncnc3ccc(NC4=NC(C)(C)CO4)cc23)ccc1Oc1ccn2ncnc2c1` [TUCATINIB], the Kd in [17] is > 30 µM (inactive); in assay [1], 3.91 µM (active); in [2], > 30 µM (inactive); in assay [3], > 30 µM (inactive); in assay [13] it was > 30 µM (inactive); in assay [18] it was > 30 µM (inactive). Moreover, the Kd in assay [14], in assay [4], in [15], in [5], in assay [6] and in [7] was > 30 µM (inactive) in each case. In addition, the Kd in assay [16], in assay [9], in [10], in assay [11] and in [12] was > 30 µM (inactive) each time.

With `CC(C)c1cc(CNc2nc(Nc3cc(C4CC4)[nH]n3)cc(N3CCN(C)CC3)n2)on1` [XL-228], the Kd in assay [17] is 0.075 µM (active); in assay [1] it was > 30 µM (inactive); in [2], > 30 µM (inactive); in assay [3] it was > 30 µM (inactive); in assay [13], > 30 µM (inactive); in assay [18] it was > 30 µM (inactive). The Kd is 0.004 µM (active) in assay [14]; > 30 µM (inactive) in assay [4]; > 30 µM (inactive) in assay [15]; 0.138 µM (active) in [5]; > 30 µM (inactive) in [6]; > 30 µM (inactive) in [7]. Further, the Kd in assay [16] was 0.003 µM (active); in assay [9], > 30 µM (inactive); in [10], > 30 µM (inactive); in assay [11] it was 0.011 µM (active); in assay [12] it was > 30 µM (inactive).

With `C[C@@H](N)c1ccc(C(=O)Nc2ccnc3[nH]ccc23)cc1` [Y-39983], the Kd in assay [17], in assay [1], in [2], in assay [3], in assay [13] and in [18] was > 30 µM (inactive) in each case. Also, the Kd is > 30 µM (inactive) in assay [14]; 0.034 µM (active) in [4]; > 30 µM (inactive) in [15]; 0.122 µM (active) in [5]; > 30 µM (inactive) in assay [6]; > 30 µM (inactive) in [7]. The Kd was > 30 µM (inactive) in [16]; > 30 µM (inactive) in [9]; > 30 µM (inactive) in [10]; 0.253 µM (active) in assay [11]; > 30 µM (inactive) in [12].
